Where two headings read alike, the source gives them in different places.

The test system of data set [1] is 4T1. The data set is described as follows: Cytotoxicity assay (MTT), 4T1. It is filed as cell-based, mouse. The settings on record: read-out: Cytotoxicity, IC50, 4T1. How it is done: (§1) MCF-7 (human breast adenocarcinoma, estrogen-positive) and 4T1 (mouse carcinoma), as breast cancer cell lines, and H9C2 (rat cardiomyoblasts), NIH 3T3 (mouse fibroblasts), HEKa (primary human epidermal keratinocytes), MDCK (Madin-Darby Canine Kidney) cells, and A7r5 (rat vascular smooth muscle cells), as normal cell lines, were obtained from the American Type Culture Collection [ATCC] collection for use in the current study. All cell lines were cultured in Dulbecco's modified Eagle's medium (DMEM) containing 10% fetal bovine serum (FBS) and 4 mM L-glutamine at 37 °C and 5% CO2.
(§2) Cell viability was assessed by the addition of 3-(4,5-dimethylthiazol-2-yl)-2,5-diphenyltetrazolinium bromide (MTT). Briefly, cells were seeded (2–6 × 10^4 cells/ml) in 96-well plates and allowed to attach for 24 h. Solutions of test compounds were prepared and serially diluted to obtain the appropriate concentrations. The cells were treated with the test compounds at different concentrations (0.032–100 µM) and incubated for 48 h at 37 °C and 5% CO2. Then, the culture medium was removed, and medium containing 0.2 mg/ml MTT was added. After 3 h (37 °C, 5% CO2), the MTT-containing medium was removed, and 200 μl of dimethyl sulfoxide (DMSO) was immediately added to each sample. The absorbance was assessed at 540 nm using a Tecan multiplate reader Infinite 1000 (Austria). The half-maximal inhibitory concentration (IC50) of each compound was calculated using Graph Pad Prism 3.0.

In data set [2] the test system is NIH 3T3. The data set is described as follows: Cytotoxicity assay (MTT), 3T3. Particulars: normal cell line, 48 h, mean ± S.D., 3 experiments. It is filed as cell-based, mouse. As for the experimental part:
as §1, §2

In data set [3] the test system is H9C2. Description: Cytotoxicity assay (MTT), H9C2. The format is cell-based, rat. Particulars: for IC50: normal cell line, MTT, 48 h, mean ± S.D., 3 experiments. As for the experimental part: as §1, §2
Data set [4] relates to MCF-7. Description: Cytotoxicity assay (MTT), MCF-7. It is filed as cell-based, human. Particulars: for IC50: read-out: Cytotoxicity, IC50, MCF-7. As for the experimental part: as §1, §2
Data set [5] deals with A7r5. The data set is described as follows: Cytotoxicity assay (MTT), A7r5. The format is cell-based, rat. The settings on record: normal cell line, 48 h, mean ± S.D., 3 experiments. As for the experimental part: as §1, §2
The test system of data set [6] is MDCK. The data set is described as follows: Cytotoxicity assay (MTT), MDCK. Particulars: normal cell line, 48 h, mean ± S.D., 3 experiments. The format is cell-based, Canine. How it is done:
as §1, §2

The subject of data set [7] is HEKa. Description: Cytotoxicity assay (MTT), HEKa. It is filed as cell-based, human. The settings on record: normal cell line, 48 h, mean ± S.D., 3 experiments. As for the experimental part:
as §1, §2

Data set [8] in a line: Cytotoxicity assay (MTT), 3T3. It is filed as cell-based, mouse. Particulars: mouse, normal cell line, mean ± S.D., 3 experiments. How it is done: as §1, §2
A short description of data set [9]: Cytotoxicity assay (MTT), H9C2. The format is cell-based, rat. The settings on record: rat, normal cell line, MTT, 48 h, mean ± S.D., 3 experiments. How it is done:
as §1, §2

Data set [10] in a line: Cytotoxicity assay (MTT), A7r5. The format is cell-based, rat. Particulars: rat, normal cell line, mean ± S.D., 3 experiments. As for the experimental part:
as §1, §2

Data set [11] in a line: Cytotoxicity assay (MTT), MDCK. The format is cell-based, Canine. The settings on record: dog, normal cell line, mean ± S.D., 3 experiments. As for the experimental part: as §1, §2
The nature of data set [12]: Cytotoxicity assay (MTT), HEKa. It is filed as cell-based, human. Particulars: human, normal cell line, mean ± S.D., 3 experiments. How it is done: as §1, §2
Data set [13] relates to MCF-7 cells. Description: Fluorometric measurement of NMN level. The settings on record: 2 μM, 10 min, vs control. The format is cell-based, human. As for the experimental part:
For fluorometric measurements of NMN, a previously described method was used, with minor modifications. […] The cells were washed with PBS and then lysed by adding 200 μl of 1 M HClO4 to each well and incubating at 4 °C for 20 min. The cells were harvested by scraping and transferred to a tube. The extracts were neutralized with 100 μl of 2 M KOH for 5 min at room temperature and 50 μl of 0.1 M bicine (pH 7.4) was added. The samples were centrifuged at 14 000 × g for 10 min at 4 °C, and the supernatant was collected for further analysis. The protein concentration in each sample was determined using a Bio-Rad protein assay kit. […] The reaction was incubated for 2 min at 4 °C, after which 45 μl of 88% formic acid was added, and the samples were incubated for another 10 min at 37 °C on a shaker. The fluorescence was measured using a Tecan multiplate reader Infinite 1000 (Austria) with excitation at 382 nm and emission at […].

The subject of data set [14] is MCF-7 cells. The data set is described as follows: NAD+/NADH assay kit measurement. The format is cell-based, human. The settings on record: 2 μM, 10 min. As for the experimental part: The NAD^+/NADH ratio in the MCF-7 cells exposed to the test compounds (2 μM) for 10 min was measured using an NAD^+/NADH assay kit (Abcam, ab65348) according to the manufacturer's instructions.

In data set [15] the test system is permeabilized 4T1 cells. Description: High-resolution fluorespirometry (respiration and H2O2 flux). It is filed as cell-based, mouse. The settings on record: 1 µM, pyruvate-dependent OXPHOS state. How it is done:
High-resolution fluorespirometry was performed using an Oxygraph-2 k system (OROBOROS INSTRUMENTS, Austria). All experiments were performed at 37 °C in MiR05 medium (110 mM sucrose, 60 mM K-lactobionate, 0.5 mM EGTA, 3 mM MgCl2, 20 mM taurine, 10 mM KH2PO4, 20 mM HEPES, pH 7.1 at 30 °C, and 0.1% BSA essentially fatty acid free). The medium was reoxygenated when the oxygen concentration dropped to 80 µM. H2O2 flux was simultaneously measured with respirometry in the O2k-Fluorometer using the H2O2-sensitive probe Ampliflu Red (AmR) as described. The H2O2/O flux ratio [%] was calculated as the H2O2 flux/(0.5 O2 flux).
In permeabilized 4T1 cells, pyruvate + malate (5 and 2 mM) or glutamate + malate (10 and 2 mM) were used to determine complex I (CI)-linked LEAK (L) respiration. ADP was added to a concentration of 5 mM to determine the oxidative phosphorylation-dependent respiration (OXPHOS state). Succinate (10 mM, complex II (CII) substrate) was then added to reconstitute convergent CI&II-linked respiration. Rotenone (0.5 µM, an inhibitor of complex I) and antimycin A (2.5 µM, an inhibitor of complex III) were added to determine the CII-linked OXPHOS capacity and residual oxygen consumption (ROX), respectively. Compound 6 was added to permeabilized cells after the addition of the respective substrates in the OXPHOS state (titration experiment) or in the LEAK state. In addition, compounds 3, 6 and 7 were tested at 1 µM in the OXPHOS coupling protocol in the LEAK state. The OXPHOS coupling efficiency was calculated as: 1-Resp.rateLEAKstate/Resp.rateOXPHOSstate
The substrate-dependent flux control factor was calculated as: 1-Resp.ratebeforeadditionofrespectivesubstrate/Resp.rateafteradditionofrespectivesubstrate

[16] abbreviates: breast cancer cell line, MTT, 48 h, mean ± S.D., 3 experiments.
Setting [17] is: Mus musculus, 4T1, breast cancer cell line, MTT, 48 h, mean ± S.D., 3 experiments.
The mark [18] stands for this setting: Homo sapiens, MCF7, breast cancer cell line, MTT, 48 h, mean ± S.D., 3 experiments.
Setting [19] is: A7r5 cells (vascular smooth muscle cells).
[20] abbreviates: HEKa cells (primary epidermal keratinocytes).

As to “3-bromo-2-(2-hydroxy-2-methylethyl)-[1,2]selenazolo[2,3-a]pyridinium chloride [Compound 1]”, the IC50 in [1] (setting [16]) was determined as 0.3 ± 0.03 µM; in data set [2] it was 0.13 ± 0.02 µM; in [3], 1.8 ± 0.1 µM; in data set [4] (setting [16]) it was 3.1 ± 0.03 µM; in [5], 2.89 ± 0.42 µM; in data set [6], 3.26 ± 0.4 µM. The compound further had an IC50 in data set [7] of 2.31 ± 0.02 µM.
Consider `OC(c1ccccc1)(c1ccccc1)c1[se][n+]2ccccc2c1Br` [Compound 2, 3-bromo-2-(hydroxydiphenylmethyl)-[1,2]selenazolo[2,3-a]pyridin-8-ium], for which the IC50 in data set [1] (setting [17]) was found to be 1.1 ± 0.08 µM; in data set [4] (setting [18]), 0.39 ± 0.03 µM. The IC50 at 48 h in [8] (NIH 3T3 cells (fibroblasts)) was 1.6 ± 0.3 µM; in data set [9] (H9C2 cells (cardiomyoblasts)), 4.2 ± 0.3 µM; in data set [10] (setting [19]), 1.87 ± 0.26 µM; in data set [11] (MDCK cells), 6.27 ± 0.29 µM; in data set [12] (setting [20]), 2.78 ± 0.08 µM.
Consider `Cc1cc[n+]2[se]c(C3(O)CCCCC3)c(Br)c2c1` [Compound 4, 3-bromo-2-(1-hydroxycyclohexyl)-5-methyl-[1,2]selenazolo[2,3-a]pyridin-8-ium], for which the IC50 came out at 0.45 ± 0.02 µM in data set [1] (setting [17]) and 1.48 ± 0.04 µM in [4] (setting [18]). Further, the IC50 at 48 h in data set [8] (NIH 3T3 cells (fibroblasts)) is 0.79 ± 0.02 µM; in [9] (H9C2 cells (cardiomyoblasts)), 2.9 ± 0.1 µM; in data set [10] (setting [19]), 1.93 ± 0.16 µM; in data set [11] (MDCK cells), 2.54 ± 0.57 µM; in [12] (setting [20]), 2.05 ± 0.05 µM.
Take `OC1(c2[se][n+]3ccccc3c2Br)CCCCCC1.[Br-]` [Compound 5, 3-Bromo-2-(1-hydroxycycloheptyl)-[1,2]selenazolo[2,3-a]pyridinium bromide]: the figures for the IC50 in data set [1] (setting [17]) and in [4] (setting [18]) were 0.41 ± 0.05 µM and 0.29 ± 0.01 µM, respectively. The IC50 at 48 h in [8] (NIH 3T3 cells (fibroblasts)) was determined as 0.98 ± 0.03 µM; in data set [9] (H9C2 cells (cardiomyoblasts)) it was 9.3 ± 0.2 µM; in data set [10] (setting [19]), 1.92 ± 0.44 µM; in data set [11] (MDCK cells) it was 1.51 ± 0.37 µM; in data set [12] (setting [20]), 2.01 ± 0.08 µM. The “increase of cytotoxicity against MCF-7 cells” value in [4] (cycloheptyl (5) versus cyclohexyl (4)) is “approximately 3 times”.
Take `Cn1cc[n+]2[se]c(C3(O)CCCCC3)c(Br)c12` [Compound 7, 3-bromo-N-methyl-2-(1-hydroxycyclohexyl)[1,2]selenazolo[2,3-b]imidazolium bromide]: the IC50 in data set [1] (Mus musculus, 4T1, 48 h) amounted to 0.94 ± 0.06 µM; in data set [4] (Homo sapiens, MCF7, 48 h) it was 1.48 ± 0.02 µM. Moreover, the IC50 at 48 h was 2.2 ± 0.3 µM in data set [8]; 0.67 ± 0.02 µM in [9]; 1.66 ± 0.25 µM in [10]; 4.28 ± 0.34 µM in [11]; 2.19 ± 0.09 µM in data set [12]. Also, in [13], the “decrease in NMN levels” value was “not”. Besides, the “NAD+/NADH ratio higher than in untreated cells” value in data set [14] was 1.65 times. In addition, the “decrease in NAD+ level” value in data set [14] (vs control) is recorded as “without affecting”. Moreover, in [14] (vs control), the “decrease in NADH level” value is reported as “induced a decrease”. Further, the “increase in H2O2/O ratio” value in data set [15] is “immediate significant increases”. In data set [15], the “increase in H2O2 production” value is reported as “immediate significant increases”.
For `COc1cccc2c1C(=O)c1c(O)c3c(c(O)c1C2=O)C[C@@](O)(C(=O)CO)C[C@@H]3O[C@H]1C[C@H](N)[C@H](O)[C@H](C)O1` [Doxorubicin, reference compound], the IC50 in data set [1] (setting [17]) is 0.16 ± 0.06 µM; in data set [4] (setting [18]), 1 ± 0.3 µM. Besides, the IC50 at 48 h amounted to 0.75 ± 0.09 µM in data set [8] (NIH 3T3 cells (fibroblasts)), 11 ± 1 µM in data set [9] (H9C2 cells (cardiomyoblasts)), 1.82 ± 0.35 µM in [10] (setting [19]) and 57 ± 6.1 µM in [11] (MDCK cells). Further, in [3] (tumor cells versus cardiomyocytes), the “IC50 values in tumor cells versus cardiomyocytes, fold lower” value is 10–100 fold.
`O=[Se](O)O` [Na2SeO3, Sodium selenite, reference compound]: the IC50 in data set [1] (setting [16]) was determined as 4.9 ± 0.6 µM; in data set [2] it was 22.3 ± 3.6 µM; in [3], 1.5 ± 0.3 µM; in [4] (setting [16]), 17.1 ± 2.4 µM; in [5], 39.4 ± 8.2 µM; in [6], 6.3 ± 0.4 µM. The compound also returned an IC50 in data set [7] of 13.3 ± 1.1 µM.

A word on the IC50: it is the midpoint of a concentration-inhibition curve.
